Assay results: patent US11869191B2, “System and method for tissue viability screening” (THE REGENTS OF THE UNIVERSITY OF CALIFORNIA, priority 2019, dated 2024)

System: pre-implantation mouse embryos
Assay: Inhibition of glycolysis, phasor-FLIM of NADH lifetime in embryos
Assay type: cell-based
Details: 1 mM, early blastocyst stage embryos; g value vs control p-value=3.88E-09
Description: Embryos were placed in 25 μl microdroplets of KSOMaa (Invitrogen) with the appropriate inhibitors covered in mineral oil (Sigma). Both of the two chemical inhibitors, rotenone and antimycin A cocktail (R&A) and 2-Deoxyglucose (2DeoxyG) were dissolved in KSOMaa. For R&A, the inhibitor was prepared to perform dose dependence measurements for a final concentration of 100 nM and 500 nM. For 2DeoxyG, the inhibitor has a final concentration of 1 mM. KSOMaa was used as a solvent and culture media for the control group and treatment group embryos.
Fluorescence lifetime images of the pre-implantation embryos were acquired on Zeiss LSM710 (Carl Zeiss, Jena, Germany), a multi-photon microscope coupled with a Ti: Sapphire laser (Spectra-Physics Mai Tai, Mountain View, CA) with 80 MHz repetition rate. […] A dichroic filter at 690 nm was used to separate the fluorescence signal from the laser light. And the emission signal was split with 496 nm LP filter and detected in two channels using a band pass filter 460/80 and a 540/50 filter. […] FLIM calibration of the system was performed by measuring the known lifetime of a fluorophore coumarin 6 (dissolved in ethanol), which has a known fluorescence lifetime of T=2.5 ns(37, 38). […] FLIM data were acquired and processed by the SimFCS software developed at the Laboratory of Fluorescence Dynamics (LFD). […]

With `O=CC[C@@H](O)[C@H](O)[C@H](O)CO` [2DeoxyG, 2-Deoxy-D-Glucose] the “phasor-FLIM lifetime distribution (free/bound NADH) compared to controls” value was “shifted the phasor-FLIM distribution to longer lifetime”.
